Assay in all cases: NCI-60 cell line screen, 48 h
The test system of assay [1] is OVCAR-8 ovarian.
Assay [2] concerns PC-3 prostate.
The subject of assay [3] is MDA-MB-435.
Assay [4] concerns HOP-62 NSCLC.
Assay [5] concerns 786-0 renal.
Assay [6] has as its system UACC-62 melanoma.
Assay [7] deals with OVCAR-5 ovarian.
Assay [8] deals with NCI-H226 lung.
For assay [9], the system named is SNB-75 CNS.
Assay [10] relates to MOLT-4 leukemia.
Assay [11] deals with KM12 colon.
In assay [12] the test system is SK-MEL-5 melanoma.
Assay [13] deals with MALME-3M melanoma.
Assay [14] relates to DU-145 prostate.
Assay [15] has as its system MDA-N.
The subject of assay [16] is M14 melanoma.
The test system of assay [17] is HL-60(TB) leukemia.

Structures are written as SMILES.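 Where inhibition never reached the appropriate level, the endpoint shown equals the highest concentration tested. Otherwise, values were interpolated linearly from a five-concentration, 48-hour dose response in 96-well plates. TGI: total growth inhibition.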

Consider `O=C1Cc2c(-c3cccs3)cc(-c3ccccc3)nc2-c2ccccc2N1`, for which the TGI in assay [1] was 17.1 µM; in [2], greater than 100 µM; in assay [3] it was greater than 100 µM; in assay [4] it was greater than 100 µM; in assay [5] it was greater than 100 µM; in assay [6] it was greater than 100 µM. Further, the TGI in [7] was greater than 100 µM; in assay [8] it was greater than 100 µM; in [9], 41.9 µM; in assay [10], greater than 100 µM; in assay [11], greater than 100 µM; in assay [12] it was greater than 100 µM. In addition, the TGI in [13] was 45.7 µM; in assay [14] it was greater than 100 µM; in [15], greater than 100 µM; in [16], greater than 100 µM.
With `Brc1ccc(C2=NCSC(c3ccc(Br)cc3)=N2)cc1`, the TGI is greater than 100 µM in assay [1]; 56.7 µM in assay [2]; greater than 100 µM in assay [3]; greater than 100 µM in assay [4]; 40.4 µM in assay [5]; 29.8 µM in [6]. Moreover, the TGI in assay [7] was greater than 100 µM; in assay [8], greater than 100 µM; in assay [9], 63.1 µM; in assay [10], 48.6 µM; in assay [11] it was greater than 100 µM; in assay [12], 64.5 µM. The TGI in [13] is greater than 100 µM; in [15] it was 54.7 µM; in assay [17], 34.8 µM; in assay [16], greater than 100 µM.
Take `COc1ccc2c(O)c(Oc3ccc(Cl)cc3)c(=O)oc2c1`: the TGI in assay [1], in assay [2], in assay [4], in assay [5], in assay [7] and in [8] was greater than 100 µM throughout. Moreover, the TGI in assay [9], in assay [10], in [11], in assay [12], in assay [13] and in assay [14] was greater than 100 µM in each case. Also, the TGI in assay [15], in [17] and in [16] was greater than 100 µM in each case.
For the compound `Cc1ccc(S(=O)(=O)n2cc(/C=C/C#N)c(-c3cn(S(=O)(=O)c4ccc(C)cc4)cc3-c3cn(S(=O)(=O)c4ccc(C)cc4)cc3/C=C/C#N)c2)cc1`, the TGI in [1], in [2], in assay [3], in assay [4], in assay [5] and in assay [6] was greater than 100 µM each time. Moreover, the TGI in [7], in [8], in [9], in [11], in assay [12] and in [13] was greater than 100 µM in each case. Moreover, the TGI in assay [14], in [15] and in assay [16] was greater than 100 µM each time.
For the compound `Clc1ccc(/C=C/c2nc(-c3ccccc3)cn3c2nc2ccccc23)cc1Cl`, the TGI in [2], in assay [3], in assay [4], in [5], in assay [6] and in assay [7] was greater than 100 µM in each case. In addition, the TGI in assay [8], in assay [10], in assay [11], in [12], in assay [14] and in [15] was greater than 100 µM each time. In addition, the TGI was 49.7 µM in assay [17] and greater than 100 µM in assay [16].
Turning to `NC(N)=N/N=C/c1c(-c2ccccc2[N+](=O)[O-])nc2sccn12`, the TGI was greater than 100 µM in [1]; 71.1 µM in assay [2]; 35.1 µM in assay [3]; 69.5 µM in assay [4]; 35.3 µM in assay [5]; 32.7 µM in assay [6]. For the same compound, the TGI in assay [7] was greater than 100 µM; in assay [8], 39.1 µM; in assay [9], 34.2 µM; in [10] it was 46 µM; in assay [11], 46.9 µM; in [12], 30.8 µM. The TGI in assay [13] was 32.3 µM; in assay [14], greater than 100 µM; in [17] it was 40.4 µM; in assay [16] it was 31.2 µM.
As to `COc1ccc2c(-c3csc(-c4c[nH]c5ccc(Br)cc45)n3)c[nH]c2c1`, the TGI was greater than 100 µM in assay [1]; 79.3 µM in assay [2]; 67.9 µM in [3]; greater than 100 µM in [4]; greater than 100 µM in assay [5]; greater than 100 µM in [6]. Further, the TGI in [7] is greater than 100 µM; in [8], greater than 100 µM; in assay [10] it was greater than 100 µM; in assay [11] it was greater than 100 µM; in assay [12], greater than 100 µM; in assay [13], 43.9 µM. The figures for the TGI in [14], in assay [15] and in assay [16] were greater than 100 µM, 30.8 µM and greater than 100 µM, respectively.
In the case of `CN1CCN(Cn2nc(COc3ccccc3Cl)n(/N=C/c3ccc(-c4ccc(Cl)cc4Cl)o3)c2=S)CC1`, the TGI in [1] was 79.3 µM; in assay [2], 53.6 µM; in assay [3], 64.5 µM; in assay [4], 45.7 µM; in assay [5], 32.8 µM; in assay [7], greater than 100 µM. Moreover, the TGI in assay [8] was greater than 100 µM; in [10] it was 62.1 µM; in assay [11] it was 42.1 µM; in assay [12] it was 71.8 µM; in assay [14], 38.3 µM; in [15], 53.8 µM. Also, the TGI in [17] worked out at 55.1 µM; in [16], 81.7 µM.
Regarding `COc1cc([C@@H]2c3cc4c(cc3[C@H](OC3OC5COC(c6ccco6)OC5C(O)C3O)C3COC(=O)[C@@H]32)OCO4)cc(OC)c1OC` (some centres not stated), the TGI in [1] is greater than 100 µM; in assay [2] it was greater than 35.9 µM; in assay [3] it was greater than 100 µM; in assay [4] it was greater than 100 µM; in assay [5], greater than 34.5 µM; in assay [6], greater than 100 µM. Further, the TGI in assay [7] is greater than 100 µM; in [8], greater than 100 µM; in assay [9], greater than 100 µM; in assay [11], greater than 100 µM; in [12], greater than 72.4 µM; in assay [13], greater than 100 µM. Besides, the TGI in [14], in [17] and in assay [16] was greater than 100 µM in each case.
As for `COC(=O)C(=O)C(C(=O)C(=O)Nc1ccc(Cl)c(Cl)c1)c1nc2ccc(C(=O)c3ccccc3)cc2[nH]c1=O` (configuration not stated), the TGI in [1], in assay [2], in assay [3], in assay [4], in [5] and in assay [6] was greater than 100 µM each time. In addition, the TGI in [7], in assay [8], in [9], in assay [10], in [11] and in assay [12] was greater than 100 µM throughout. Moreover, the TGI in assay [13], in [15], in assay [17] and in assay [16] was greater than 100 µM in each case.
In the case of `N#CC(C#N)=c1c(=O)c2c3ccccc3cc3cccc1c32`, the TGI in assay [2], in [3], in [4], in assay [5], in [6] and in assay [7] was greater than 100 µM throughout. The TGI in assay [8], in [9], in assay [10], in [11], in [12] and in assay [14] was greater than 100 µM each time. The TGI in assay [15], in assay [17] and in [16] was greater than 100 µM each time.
Consider `COCN1C(=O)[C@@H]2CCCN2C(=O)c2cc(OC)c(Cc3ccccc3)cc21`, for which the TGI in assay [1], in assay [2], in assay [3], in [4], in assay [5] and in assay [6] was greater than 100 µM throughout. Also, the TGI in assay [7], in assay [9], in [11], in assay [13], in assay [14] and in assay [15] was greater than 100 µM in each case. The same compound showed a TGI in assay [16] greater than 100 µM.
In the case of `CC(C)OC(=O)NCCn1cc(-c2ccccc2)nn1`, the TGI in assay [1], in assay [2], in assay [3], in [4], in [5] and in assay [7] was greater than 100 µM each time. In addition, the TGI in [8], in assay [9], in assay [10], in assay [11], in [12] and in [13] was greater than 100 µM in each case. Further, the TGI in [14], in assay [17] and in assay [16] was greater than 100 µM each time.
Turning to `CCOC(=O)c1nc2ccccc2nc1Oc1cc(OC)cc(OC)c1`, the TGI in [1], in assay [2], in assay [3], in assay [4], in assay [5] and in assay [6] was greater than 100 µM each time. Also, the TGI in assay [7], in assay [8], in assay [10], in [11], in [12] and in assay [13] was greater than 100 µM each time. Moreover, the TGI in assay [14], in [15] and in assay [16] was greater than 100 µM each time.
With `O=C1CSC(c2c[nH]c3ccccc23)N1c1cccc(Cl)c1` (configuration not stated), the TGI was greater than 100 µM in [1]; greater than 100 µM in [3]; greater than 100 µM in assay [4]; 47.1 µM in assay [5]; greater than 100 µM in [6]; greater than 100 µM in assay [7]. In addition, the TGI in [8], in [9], in assay [10], in [11], in [12] and in [14] was greater than 100 µM each time. In addition, the TGI in assay [15], in [17] and in assay [16] was greater than 100 µM throughout.
On to `COC(=NC(C)C)NC(C)C`, for which the TGI in [1], in [2], in assay [3], in [4], in assay [5] and in [6] was greater than 100 µM throughout. Further, the TGI in assay [7], in [8], in assay [9], in [10], in [12] and in assay [14] was greater than 100 µM each time. The TGI in assay [15], in [17] and in assay [16] was greater than 100 µM in each case.
Consider `COc1cc2nc(-c3cccs3)nc(Nc3cccc([N+](=O)[O-])c3)c2cc1OC`, for which the TGI was 56.8 µM in assay [1]; 37.8 µM in assay [2]; 31.6 µM in assay [3]; 36.1 µM in assay [4]; 40.9 µM in assay [5]; 31.1 µM in assay [6]. Also, the TGI in assay [7] was 41.4 µM; in [8], 58.7 µM; in assay [9] it was 78.8 µM; in [10], greater than 100 µM; in assay [11], 40.6 µM; in assay [12], greater than 100 µM. Besides, the TGI in [13] is 35.2 µM; in assay [14], 30 µM; in assay [17], greater than 100 µM; in assay [16] it was 33.5 µM.
Regarding `O=C1c2ccccc2C(=O)N1/N=C1/SC(=Nc2ccccc2)C(=Nc2ccccc2)N1c1ccccc1`, the TGI is greater than 75.9 µM in assay [1]; greater than 100 µM in assay [2]; greater than 100 µM in assay [3]; greater than 100 µM in assay [4]; greater than 41.7 µM in [5]; greater than 100 µM in [6]. Further, the TGI in [7] is greater than 100 µM; in assay [8], greater than 100 µM; in assay [9], greater than 54.1 µM; in [10], greater than 100 µM; in assay [11], greater than 100 µM; in assay [12], greater than 90.3 µM. Besides, the TGI in assay [13] is greater than 84.7 µM; in assay [14], greater than 100 µM; in assay [17], greater than 100 µM; in assay [16] it was greater than 100 µM.

The values are drawn from PubChem BioAssay (NCI).
